Experimental data taken from patent US20210238225A1, “PEPTIDOMIMETIC INHIBITORS OF THE PEPTIDYL-PROLYL CIS/TRANS ISOMERASE (PIN1)” (DANA-FARBER CANCER INSTITUTE, INC., priority 2018, published 2021).
Like-named read-outs stand apart in the source and are kept apart here. Non-standard residues stand in square brackets, D forms with d. Residues, ends and D or L forms follow the SMILES beside them. *: point of attachment. Phe(4-F) = N[C@@H](Cc1ccc(F)cc1)C(=O)O; 2Nal = N[C@@H](Cc1ccc2ccccc2c1)C(=O)O; NH(4-Me-benzyl) = Cc1ccc(CN*)cc1; NMeF = CN[C@@H](Cc1ccccc1)C(=O)O; Cit = NC(=O)NCCC[C@H](N)C(=O)O; Pip = O=C(O)[C@@H]1CCCCN1; Piperidide = C1CCN(*)CC1; NHcBu = C1CC(N*)C1; NHtBu = CC(C)(C)N*; ClAc = O=C(CCl)*

Experiments:
Pin1 (GST-Pin1) = Pin1 (GST-Pin1) (Homo sapiens, UniProt Q13526); assay: Fluorescence polarization (FP) assay, binding to Pin1; settings: competition with fluorescein-labeled peptide probe, 12 hours pre-incubation at 4° C., Kenakin Ki equation
Chain of Pin1 (GST-Pin1) (Q13526 whole entry): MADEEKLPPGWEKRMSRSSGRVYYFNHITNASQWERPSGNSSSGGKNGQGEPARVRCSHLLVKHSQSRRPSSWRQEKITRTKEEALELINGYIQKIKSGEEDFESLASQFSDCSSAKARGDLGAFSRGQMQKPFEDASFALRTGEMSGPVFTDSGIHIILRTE

Pin1 [1] = biological target: T1, Pin1 (Homo sapiens, UniProt Q13526); assay: Cellular target engagement, live cell biotin competition assay in TNBC MDA-MB-231 cells; type: cell-based; parameters: endogenous in cells; host or cells: MDA-MB-231; settings: TNBC MDA-MB-231 cells; for Cellular Target Engagement?: 5 hours treatment, concentration under E7
T1 sequence (Q13526 whole entry): as above
Experimental: TNBC MDA-MB-231 cells were plated in 10 cm plates with 2.5 million cells per plate in 6 mL of media. The day after plating, cells were treated with the indicated concentrations of compound 18 for 5 hours. The cells were washed 2× with 0.9% NaCl (1 mL per 10 cm plate), and collected by scraping with a cell scraper. Cells were lysed in lysis buffer (50 mM Hepes pH 7.5, 150 mM NaCl, 1 mM EDTA, 10% v/v glycerol, 0.5% v/v […], protease inhibitors (Roche)) using 210 μL of cell lysis buffer per 10 cm plate of cells. After clarifying by centrifugation (14,000 rpm for 15 min at 4° C.), 5 μL of each lysate sample was combined with 5 μL of 2× LDS+10% β-mercaptoethanol, boiled for 5 minutes, and set aside for the input loading control (later to be loaded directly in the gel). Then, 200 μL of each lysate was then incubated with 1 μM of compound 2-32 (biotin probe compound) for 1 hour at 4° C. Lysates were then incubated with streptavidin agarose resin (30 μL of 1:1 beads: lysis buffer slurry) (Thermo Scientific™, cat. #20349) for 2 hours at 4° C. Beads were washed 4 times with 500 μL of washing buffer (50 mM Hepes, pH7.5, 10 mM NaCl, 1 mM EDTA, 10% glycerol), then pelleted by centrifugation and dried. The beads were then boiled at 95° C. for 5 minutes in 30 μL of 2× LDS+10% β-mercaptoethanol. Lysates were probed for specified proteins by western blotting using the Bolt system (Life Technologies™).

Pin1 [2] = biological target: T1, Pin1; assay: Lysate target engagement (pull down with biotinylated probes; competition assay); type: binding; parameters: endogenous in cells; host or cells: MDA-MB-231; settings: for Lysate Target Engagement?: TNBC-MDA-MB-231 lysate, biotin/dtb probes: pull down, others: competition, concentration under E5; for Lysate Target Engagement? concentration stated for the engagement or pull down: read with the E4 line of the same compound (complete, partial, probe pull down)
Experimental: (§1) TNBC-MDA-MB-231 cells were lysed in lysis buffer (50 mM Hepes pH 7.5, 150 mM NaCl, 1 mM ethylenediaminetetraacetic acid (EDTA), 10% v/v glycerol, 0.5% v/v NP-40, protease inhibitors (Roche)). After clarifying by centrifugation (14,000 rpm for 15 min at 4° C.), lysates were incubated with the indicated concentrations of candidate compound for 1 hour at 4° C. (500 μg of protein per sample, as determined by BCA). Lysates were then incubated with streptavidin agarose resin (30 μL of 1:1 beads: lysis buffer slurry) (Thermo Scientific™, cat. #20349) for 2 hours at 4° C. Beads were washed 4 times with 500 μL of washing buffer (50 mM Hepes, pH 7.5, 10 mM NaCl, 1 mM EDTA, 10% glycerol), then pelleted by centrifugation and dried. The beads were then boiled at 95° C. for 5 minutes in 30 μL of 2× LDS+10% β-mercaptoethanol. Lysates were probed for specified proteins by western blotting using the Bolt system (Life Technologies™).
as §1, with “mM EDTA,” for “mM ethylenediaminetetraacetic acid (EDTA),”, “by centrifugation,” for “by centrifugation (14,000 rpm for 15 min at 4° C.),”, “were pre-incubated” for “were incubated”, “of” for “of candidate”, “compound 18 overnight” for “compound for 1 hour”, “BCA). The lysates were then incubated with 1 μM of compound 2c (desthiobiotin probe) for 1 hour at 4° C.” for “BCA).”

SMILES | Ki (Pin1 (GST-Pin1); read-out: Ki, μM (FP Assay)) [µM] | Cellular Target Engagement? (Pin1 [1]) | Lysate Target Engagement? (Pin1 [2]) | Lysate Target Engagement? concentration stated for the engagement or pull down (Pin1 [2]) | Ki (Pin1 (GST-Pin1); Ki, μM (FP Assay)) [µM] | Cellular Target Engagement? concentration stated for complete engagement (Pin1 [1]; read with the E6 line)
CCOC(=O)[C@H](CCCNC(N)=O)NC(=O)[C@H](Cc1c[nH]c2ccccc12)NC(=O)[C@@H]1CCCCN1C(=O)[C@H](Cc1ccccc1)N(C)C(C)=O [Compound 18-1, Ethyl (S)-2-((S)-2-((S)-1-(N-acetyl-N-methyl-L-phenylalanyl)piperidine-2-carboxamido)-3-(1H-indol-3-yl)propanamido)-5-ureidopentanoate] (Ac-[NMeF][Pip]W[Cit]-OEt) | 1.9 | No |  |  |  | 
NC(=O)[C@H](Cc1ccc(F)cc1)NC(=O)[C@H](Cc1c[nH]c2ccccc12)NC(=O)[C@@H]1CCCCN1C(=O)[C@H](CCC(=O)O)NC(=O)CCl [Compound 2-27, (S)-5-((S)-2-(((S)-1-(((S)-1-Amino-3-(4-fluorophenyl)-1-oxopropan-2-yl)amino)-3-(1H-indol-3-yl)-1-oxopropan-2-yl)carbamoyl)piperidin-1-yl)-4-(2-chloroacetamido)-5-oxopentanoic acid] (ClAc-E[Pip]W[Phe(4-F)]-NH2) | 0.075 | No | Yes-partial | at 10 μM |  | 
NC(=O)NCCC[C@H](NC(=O)[C@H](Cc1c[nH]c2ccccc12)NC(=O)[C@@H]1CCCCN1C(=O)[C@H](CCC(=O)O)NC(=O)CCl)C(N)=O [Compound 2b-18, (S)-5-((S)-2-(((S)-1-(((S)-1-Amino-1-oxo-5-ureidopentan-2-yl)amino)-3-(1H-indol-3-yl)-1-oxopropan-2-yl)carbamoyl)piperidin-1-yl)-4-(2-chloroacetamido)-5-oxopentanoic acid] (ClAc-E[Pip]W[Cit]-NH2) |  | No | Yes-Complete | at 5 μM |  | 
COC(=O)CC[C@H](NC(=O)CCl)C(=O)N1CCCC[C@H]1C(=O)N[C@@H](Cc1c[nH]c2ccccc12)C(=O)N[C@@H](Cc1c[nH]c2ccccc12)C(=O)NCc1ccc(C)cc1 [Compound 11-2, Methyl (S)-5-((S)-2-(((S)-1-(((S)-3-(1H-indol-3-yl)-1-((4-methylbenzyl)amino)-1-oxopropan-2-yl)amino)-3-(1H-indol-3-yl)-1-oxopropan-2-yl)carbamoyl)piperidin-1-yl)-4-(2-chloroacetamido)-5-oxopentanoate] (ClAc-E(OMe)[Pip]WW-{NH(4-Me-benzyl)}) | > 10 | No | No |  |  | 
COC(=O)CC[C@H](NC(=O)CCl)C(=O)N1CCCC[C@H]1C(=O)N[C@@H](Cc1c[nH]c2ccccc12)C(=O)N[C@@H](Cc1ccc(F)cc1)C(=O)NC1CCC1 [Compound 11-19, Methyl (S)-4-(2-chloroacetamido)-5-((S)-2-(((S)-1-(((S)-1-(cyclobutylamino)-3-(4-fluorophenyl)-1-oxopropan-2-yl)amino)-3-(1H-indol-3-yl)-1-oxopropan-2-yl)carbamoyl)piperidin-1-yl)-5-oxopentanoate] (ClAc-E(OMe)[Pip]W[Phe(4-F)]-NHcBu) |  | No |  |  | 0.146 | 
COC(=O)CC[C@H](NC(=O)CCl)C(=O)N1CCCC[C@H]1C(=O)N[C@@H](Cc1c[nH]c2ccccc12)C(=O)N[C@@H](Cc1ccc(F)cc1)C(=O)NC(C)(C)C [Compound 11-18, Methyl (S)-5-((S)-2-(((S)-1-(((S)-1-(tert-butylamino)-3-(4-fluorophenyl)-1-oxopropan-2-yl)amino)-3-(1H-indol-3-yl)-1-oxopropan-2-yl)carbamoyl)piperidin-1-yl)-4-(2-chloroacetamido)-5-oxopentanoate] (ClAc-E(OMe)[Pip]W[Phe(4-F)]-NHtBu) |  | No |  |  | 0.134 | 
Cc1ccc(CNC(=O)[C@H](CCCNC(N)=O)NC(=O)[C@H](Cc2c[nH]c3ccccc23)NC(=O)[C@@H]2CCCCN2C(=O)[C@H](Cc2ccccc2)N(C)C(=O)CCl)cc1 [Compound 11, (S)—N—((S)-3-(1H-indol-3-yl)-1-(((S)-1-((4-methylbenzyl)amino)-1-oxo-5-ureidopentan-2-yl)amino)-1-oxopropan-2-yl)-1-(N-(2-chloroacetyl)-N-methyl-L-phenylalanyl)piperidine-2-carboxamide] (ClAc-[NMeF][Pip]W[Cit]-{NH(4-Me-benzyl)}) | 0.01 | Yes- |  |  |  | at 5 μM
Cc1ccc(CNC(=O)[C@H](CCCNC(N)=O)NC(=O)[C@H](Cc2c[nH]c3ccccc23)NC(=O)[C@@H]2CCCCN2C(=O)[C@H](CCC(=O)O)NC(=O)CCl)cc1 [Compound 11-6, (S)-5-((S)-2-(((S)-3-(1H-indol-3-yl)-1-(((S)-1-((4-methylbenzyl)amino)-1-oxo-5-ureidopentan-2-yl)amino)-1-oxopropan-2-yl)carbamoyl)piperidin-1-yl)-4-(2-chloroacetamido)-5-oxopentanoic acid] (ClAc-E[Pip]W[Cit]-{NH(4-Me-benzyl)}) | 0.01 | No |  |  |  | 
Cc1ccc(CNC(=O)[C@H](Cc2ccc(F)cc2)NC(=O)[C@H](Cc2c[nH]c3ccccc23)NC(=O)[C@@H]2CCCCN2C(=O)[C@H](CCC(=O)O)NC(=O)CCl)cc1 [Compound 11-5, (S)-4-(2-chloroacetamido)-5-((S)-2-(((S)-1-(((S)-3-(4-fluorophenyl)-1-((4-methylbenzyl)amino)-1-oxopropan-2-yl)amino)-3-(1H-indol-3-yl)-1-oxopropan-2-yl)carbamoyl)piperidin-1-yl)-5-oxopentanoic acid] (ClAc-E[Pip]W[Phe(4-F)]-{NH(4-Me-benzyl)}) | 0.13 | No |  |  |  | 
NC(=O)[C@H](Cc1ccc(O)cc1)NC(=O)[C@H](Cc1ccc2ccccc2c1)NC(=O)[C@@H]1CCCCN1C(=O)[C@H](CCC(=O)O)NC(=O)CCl [Compound 2-6, (S)-5-((S)-2-(((S)-1-(((S)-1-Amino-3-(4-hydroxyphenyl)-1-oxopropan-2-yl)amino)-3-(naphthalen-2-yl)-1-oxopropan-2-yl)carbamoyl)piperidin-1-yl)-4-(2-chloroacetamido)-5-oxopentanoic acid] (ClAc-E[Pip][2Nal]Y-NH2) | 0.28 | No |  |  |  | 
NC(=O)NCCC[C@H](NC(=O)[C@H](Cc1c[nH]c2ccccc12)NC(=O)[C@@H]1CCCCN1C(=O)[C@H](Cc1ccccc1)NC(=O)CCl)C(=O)N1CCCCC1 [Compound 11-39, (S)—N—((S)-3-(1H-indol-3-yl)-1-oxo-1-(((S)-1-oxo-1-(piperidin-1-yl)-5-ureidopentan-2-yl)amino)propan-2-yl)-1-((2-chloroacetyl)-L-phenylalanyl)piperidine-2-carboxamide] (ClAc-F[Pip]W[Cit]-Piperidide) | 0.017 | No |  |  |  | 
